Assay results reported in patent US8841233B2, “Herbicidal compositions comprising 4-amino-3-chloro-5-fluoro-6-(4-chloro-2-fluoro-3-methoxyphenyl) pyridine-2-carboxylic acid or a derivative thereof and 4-hydroxyphenyl-pyruvate dioxygenase (HPPD) inhibitors” (Dow Agrosciences LLC, priority 2012, dated 2014).
Several values for one entry are separate records, joined by “and”; a condition that tells them apart may be missing. Identical values can stand only once.

Test system: ECHCG
Test: In-water applied weed control, transplanted paddy rice, greenhouse (Example II);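 for Visual Weed Control (%) - 20 DAA ECHCG Obs: visual score 0 no injury to 100 complete kill versus untreated plants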
Assay type: in vivo, Echinochloa crusgalli (L.) Beauv.
Description: Evaluation of in-Water Applied Herbicidal Mixtures for Weed Control in Transplanted Paddy Rice
Weed seeds or nutlets of the desired test plant species were planted in puddled soil (mud) prepared by mixing a shredded, non-sterilized mineral soil (50.5 percent silt, 25.5 percent clay, and 24 percent sand, with a pH of about 7.6 and an organic matter content of about 2.9 percent) and water at a 1:1 volumetric ratio. The prepared mud was dispensed in 365 mL aliquots into 16-ounce (oz.) non-perforated plastic pots with a surface area of 86.59 square centimeters (cm^2) leaving a headspace of 3 centimeters (cm) in each pot. Mud was allowed to dry overnight prior to planting or transplanting. Rice seeds were planted in Sun Gro MetroMix® 306 planting mixture, which typically has a pH of 6.0 to 6.8 and an organic matter content of about 30 percent, in plastic plug trays. Seedlings at the second or third leaf stage of growth were transplanted into 840 mL of mud contained in 32-oz. non-perforated plastic pots with a surface area of 86.59 cm^2 4 days prior to herbicide application. The paddy was created by filling the headspace of the pots with 2.5 to 3 cm of water. When required to ensure good germination and healthy plants, a fungicide treatment and/or other chemical or physical treatment was applied. The plants were grown for 4-22 days in a greenhouse with an approximate 14 h photoperiod which was maintained at about 29′C during the day and 26° C. during the night. Nutrients were added as Osmocote® (19:6:12, N:P:K+ minor nutrients) at 2 g per 16-oz. pot and 4 g per 32-oz. pot. Water was added on a regular basis to maintain the paddy flood, and supplemental lighting was provided with overhead metal halide 1000-Watt lamps as necessary. The plants were employed for testing when they reached the first through fourth true leaf stage.
Treatments consisted of the acid or esters of 4-amino-3-chloro-5-fluoro-6-(4-chloro-2-fluoro-3-methoxy-phenyl)pyridine-2-carboxylic acid (compound A) each formulated as an SC (suspension concentrate) and various herbicidal components alone and in combination. Forms of compound A were applied on an acid equivalent basis.
Other herbicidal components were applied on an active ingredient basis and included 4-hydroxyphenyl pyruvate dioxygenase (HPPD)-inhibiting herbicides mesotrione formulated as Callisto®, sulcotrione formulated as Mikado®, pyrazolynate formulated as Sunbird® 10% GR, and benzobicyclon formulated as Benzobicyclon 3.5% or technical material.
Treatment requirements for each compound or herbicidal component were calculated based upon the rates being tested, the concentration of active ingredient or acid equivalent in the formulation, an application volume of 2 mL per component per pot, and an application area of 86.59 cm^2 per pot.
For formulated compounds, a measured amount was placed in an individual 100 or 200 mL glass vial and was dissolved in a volume of 1.25% (v/v) Agri-Dex® crop oil concentrate to obtain application solutions.
For technical grade compounds, a weighed amount was placed in an individual 100 to 200 mL glass vial and was dissolved in a volume of acetone to obtain concentrated stock solutions. […] The concentrated stock solutions obtained were diluted with an equivalent volume of an aqueous mixture containing 2.5% (v/v) crop oil concentrate so that the final application solutions contained 1.25% (v/v) crop oil concentrate.
Applications were made by injecting with a pipetter appropriate amounts of the application solutions, individually and sequentially, into the aqueous layer of the paddy. Control plants were treated in the same manner with the solvent blank. Applications were made so that all treated plant material received the same concentrations of acetone and crop oil concentrate.
The treated plants and control plants were placed in a greenhouse as described above and water was added as needed to maintain a paddy flood. […]

SMILES	Visual Weed Control (%) - 22 DAA ECHCG Obs (8.75 gae/ha) [%]	Visual Weed Control (%) - 22 DAA ECHCG Obs (17.5 gae/ha) [%]	Visual Weed Control (%) - 21 DAA ECHCG Obs (8.75 gae/ha) [%]	Visual Weed Control (%) - 20 DAA ECHCG Obs (17.5 gae/ha)	Visual Weed Control (%) - 21 DAA ECHCG Obs (17.5 gae/ha) [%]	Visual Weed Control (%) - 20 DAA ECHCG Obs (35 gae/ha) [%]
COc1c(Cl)ccc(-c2nc(C(=O)OCc3ccccc3)c(Cl)c(N)c2F)c1F [Compound A Benzyl Ester, benzyl ester of 4-amino-3-chloro-5-fluoro-6-(4-chloro-2-fluoro-3-methoxy-phenyl)pyridine-2-carboxylic acid]	45	90	–	–	–	–
COc1c(Cl)ccc(-c2nc(C(=O)O)c(Cl)c(N)c2F)c1F [Compound A Acid, 4-amino-3-chloro-6-(4-chloro-2-fluoro-3-methoxyphenyl)-5-fluoropyridine-2-carboxylic acid]	–	–	20	35% and 30%	30	55
